# Experiments:
# vaccinia virus = type: cell-based
# poliovirus 1 = type: cell-based
# influenza A/H1N1 = type: cell-based
# [1] = system: human parainfluenza 3 virus (HPIV3); assay: antiviral testing against human parainfluenza 3 virus; type: cell-based; details: commercially available preparation; 100 ng/mL-100 μg/mL
# herpes simplex virus-1 = type: cell-based
# [2] = at 1-100 μg/mL
Structure (SMILES),anti-viral activity against vaccinia virus (vaccinia virus),anti-viral activity against poliovirus Sabin-1 (poliovirus 1),anti-viral activity against influenza A/California/July/2009 (H1N1) (influenza A/H1N1),anti-viral activity against parainfluenza virus-3 [1],anti-viral activity against herpes simplex virus-1 (herpes simplex virus-1),anti-viral activity against vaccinia virus (in words) (vaccinia virus),influenza A/H1N1 inhibition by hemagglutination read-out (influenza A/H1N1),toxicity [2]
COc1cc(C=CC(=O)O)cc(OC)c1O (stereo in doubt) [sinapinic acid],None of the compounds showed anti-viral activity,None of the compounds showed anti-viral activity,None of the compounds showed anti-viral activity,None of the compounds showed anti-viral activity,None of the compounds showed anti-viral activity,–,–,–
Oc1cc(O)c2c(c1)O[C@@]1(c3ccc(O)c(O)c3)Oc3cc(O)c4c(c3[C@@H]2[C@H]1O)O[C@H](c1ccc(O)c(O)c1)[C@H](O)C4 [procyanidin A2],None of the compounds showed anti-viral activity,None of the compounds showed anti-viral activity,None of the compounds showed anti-viral activity,None of the compounds showed anti-viral activity,None of the compounds showed anti-viral activity,–,–,–
O=c1c(O[C@@H]2O[C@H](CO)[C@H](O)[C@H](O)[C@H]2O)c(-c2ccc(O)c(O)c2)oc2cc(O)cc(O)c12 [quercetin-β-3-galactoside],–,–,–,–,–,core) was found to be inactive.,–,–
O=c1c(O[C@@H]2O[C@H](CO)[C@H](O)[C@H](O)[C@H]2O)c(-c2cc(O)c(O)c(O)c2)oc2cc(O)cc(O)c12 [myricetin-beta-3-galactoside],None of the compounds showed anti-viral activity,None of the compounds showed anti-viral activity,None of the compounds showed anti-viral activity,None of the compounds showed anti-viral activity,None of the compounds showed anti-viral activity,–,–,–
CCOC(=O)C1=C[C@@H](OC(CC)CC)[C@H](NC(C)=O)[C@@H](N)C1 [Tamiflu],–,–,–,–,–,–,effective viral inhibition,–
CC(C)[C@]12O[C@H]1[C@@H]1O[C@]13[C@]1(O[C@H]1C[C@H]1C4=C(CC[C@@]13C)C(=O)OC4)[C@@H]2O [triptolide],None of the compounds showed anti-viral activity,None of the compounds showed anti-viral activity,None of the compounds showed anti-viral activity,None of the compounds showed anti-viral activity,None of the compounds showed anti-viral activity,–,–,toxic

# From patent US11357811B2, “Methods to isolate anti-microbials from fruit or seed extracts” (priority 2012, dated 2022)
